Measurements: ChEMBL document CHEMBL5625182, “Synthesis and antibacterial activities of baulamycin A inspired derivatives” (Eur J Med Chem, 2023)
pIC50: −log10 of the molar value. ≈ marks a conversion by molar mass, not a printed value. Calls of active or inactive are those of the source. No cut-off for these calls is given here.

Assays:
[1] = target: T1, L-2,3-diaminopropanoate--citrate ligase (Staphylococcus aureus (strain NCTC 8325 / PS 47)) (UniProt Q2G1M9); test: Inhibition of Staphylococcus aureus SbnE at 50 uM incubated for 1 hr by malachite green staining based microplate reader analysis relative to control
T1 sequence (whole entry): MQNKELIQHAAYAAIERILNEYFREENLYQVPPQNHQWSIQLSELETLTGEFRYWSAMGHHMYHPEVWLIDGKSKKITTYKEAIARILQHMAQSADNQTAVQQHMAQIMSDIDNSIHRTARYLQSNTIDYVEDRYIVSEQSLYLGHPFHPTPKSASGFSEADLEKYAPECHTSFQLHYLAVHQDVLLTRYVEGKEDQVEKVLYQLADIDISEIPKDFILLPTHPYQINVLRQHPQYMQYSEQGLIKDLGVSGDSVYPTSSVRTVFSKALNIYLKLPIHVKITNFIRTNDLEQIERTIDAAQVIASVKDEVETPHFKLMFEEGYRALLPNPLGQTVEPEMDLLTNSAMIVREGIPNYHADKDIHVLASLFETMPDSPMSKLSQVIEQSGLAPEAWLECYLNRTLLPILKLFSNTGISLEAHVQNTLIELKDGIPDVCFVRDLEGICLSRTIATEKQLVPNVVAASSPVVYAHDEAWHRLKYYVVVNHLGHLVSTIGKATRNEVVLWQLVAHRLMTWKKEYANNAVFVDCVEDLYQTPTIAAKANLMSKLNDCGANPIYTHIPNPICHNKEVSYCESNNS

[2] = test system: Staphylococcus aureus; test: Antibacterial activity against methicillin resistant Staphylococcus aureus CCARM3167 assessed as inhibition in bacterial growth incubated for 18 hrs by microdilution method; assay type: functional
[3] = test system: Staphylococcus aureus; test: Antibacterial activity against […] Staphylococcus aureus ATCC25923 assessed as inhibition in bacterial growth incubated for 18 hrs by microdilution method; assay type: functional
[4] = test system: Staphylococcus aureus; test: Antibacterial activity against methicillin resistance Staphylococcus aureus assessed as reduction in biofilm formation at 1/2 times MIC incubated 24 hrs by crystal violet staining based microplate reader analysis; assay type: functional, organism-based
[5] = test system: Cell membrane; test: Induction of membrane disruption in methicillin resistant Staphylococcus aureus CCARM3167 at MIC incubated for 30 mins PI staining based Flow cytometry
[6] = test system: Bacillus cereus; test: Antibacterial activity against Bacillus cereus ATCC27348 assessed as inhibition of bacterial growth incubated for 18 hrs by microdilution method; assay type: functional
[7] = target: T2, L-2,3-diaminopropanoate--citrate ligase (Staphylococcus aureus (strain NCTC 8325 / PS 47), UniProt Q2G1M9); test: Inhibition of Staphylococcus aureus SbnE incubated for 1 hr by malachite green staining based microplate reader analysis
T2 sequence (Q2G1M9 whole entry): T1 sequence (whole entry)

[8] = test system: Escherichia coli; test: Antibacterial activity against Escherichia coli MC1061 assessed as inhibition of bacterial growth incubated for 18 hrs by microdilution method; assay type: functional
[9] = test system: Salmonella typhimurium; test: Antibacterial activity against Salmonella typhimurium ATCC14028 assessed as inhibition of bacterial growth incubated for 18 hrs by microdilution method; assay type: functional, Salmonella enterica subsp. enterica serovar Typhimurium; conditions: Salmonella enterica
[10] = Antibacterial activity against Bacillus subtilis ATCC6633 assessed as inhibition of bacterial growth incubated for 18 hrs by microdilution method; assay type: functional, Bacillus subtilis […]
[11] = test system: Staphylococcus aureus; test: Antibacterial activity against quinolone-resistant Staphylococcus aureus CCARM3505 assessed as inhibition of bacterial growth incubated for 18 hrs by microdilution method; assay type: functional

SMILES | inhibition [1] [%] | MIC [2] [µg/mL] | MIC [3] [µg/mL] | Activity [4] | Activity [5] | MIC [6] [µg/mL] | pIC50 [7] | MIC [8] [µg/mL] | MIC [9] [µg/mL] | MIC [10] [µg/mL] | MIC [11] [µg/mL]
CC(C)C[C@H]([C@H](O)CCNc1ccc(Cl)cc1Cl)[C@@H](O)c1cc(O)cc(O)c1 | 41.8 | 4 (≈ 9.34 µM) | 8 (≈ 18.7 µM) |  |  |  |  |  |  |  | 
CC(C)C[C@H]([C@H](O)CCNc1cc(Cl)c(F)cc1[N+](=O)[O-])[C@@H](O)c1cc(O)cc(O)c1 | 6.49 | 256 (≈ 560 µM) | 128 (≈ 280 µM) |  |  |  |  |  |  |  | 
CC(C)C[C@H]([C@H](O)CCNc1cccc(C(F)(F)F)c1)[C@@H](O)c1cc(O)cc(O)c1 | 71.1 | 16 (≈ 37.4 µM) | 8 (≈ 18.7 µM) | Active | Active | 8 (≈ 18.7 µM) | 5.21 | > 256 | > 256 | 64 (≈ 150 µM) | 8 (≈ 18.7 µM)
C=CC[C@@H](O)[C@@H](CC(C)C)[C@@H](O)c1cc(O)cc(O)c1 | 96.8 | > 256 | > 256 |  |  |  | 5.09 |  |  |  | 
C[C@@H](COCc1ccccc1)C[C@H](C)C[C@H](C)C#CC(O)c1cc(O)cc(O)c1 (stereo not given in full) | 34.8 | 4 (≈ 10.1 µM) | 2 (≈ 5.04 µM) |  |  |  |  |  |  |  | 
C[C@@H](COCc1ccccc1)C[C@H](C)C[C@H](C)C#CC(O)CC(O)C[C@@H](O)c1cc(O)cc(O)c1 (single isomer, unassigned) | 33.6 | 64 (≈ 132 µM) | 64 (≈ 132 µM) |  |  |  |  |  |  |  | 
CC(C)C[C@H]([C@H](O)CCNc1ccn(C)n1)[C@@H](O)c1cc(O)cc(O)c1 | 48.2 | 128 (≈ 352 µM) | 128 (≈ 352 µM) |  |  |  |  |  |  |  | 
Cc1onc(-c2ccccc2)c1C(=O)N[C@@H]1C(=O)N2[C@@H]1SC(C)(C)[C@@H]2C(=O)O [OXACILLIN] | 10.2 | > 256 | 0.25 (≈ 0.623 µM) |  |  | 32 (≈ 79.7 µM) |  | 64 (≈ 159 µM) | 64 (≈ 159 µM) | 8 (≈ 19.9 µM) | > 256
Cc1ccc(NCC[C@H](O)[C@@H](CC(C)C)[C@@H](O)c2cc(O)cc(O)c2)c(Cl)c1 | 54.8 | 64 (≈ 157 µM) | 64 (≈ 157 µM) |  |  |  | 4.72 |  |  |  | 
CC(C)C[C@H]([C@H](O)CCNc1ccccc1)[C@@H](O)c1cc(O)cc(O)c1 | 75.1 | 8 (≈ 22.3 µM) | 4 (≈ 11.1 µM) |  |  |  | 4.74 |  |  |  | 
Cc1ccc([N+](=O)[O-])cc1NCC[C@@H](O)[C@@H](CC(C)C)[C@@H](O)c1cc(O)cc(O)c1 | 32 | 64 (≈ 153 µM) | 32 (≈ 76.5 µM) |  |  |  |  |  |  |  | 
CC(C)C[C@H]([C@H](O)CCNc1ccccn1)[C@@H](O)c1cc(O)cc(O)c1 | 36.4 | > 256 | > 256 |  |  |  |  |  |  |  | 
CC(C)C[C@@H]([C@H](O)C[C@H](O)CCCCCCCCO)[C@@H](O)c1cc(O)cc(O)c1 | 38.4 | > 256 | > 256 |  |  |  |  |  |  |  | 
C=CC[C@@H](O)[C@H](CC(C)C)[C@@H](O)c1cc(O)cc(O)c1 | 39.5 | > 256 | > 256 |  |  |  |  |  |  |  | 
C[C@@H](CO)C[C@H](C)C[C@H](C)C#CC(O)CC(O)C[C@@H](O)c1cc(O)cc(O)c1 (single isomer, unassigned) | 6.92 | 128 (≈ 324 µM) | 128 (≈ 324 µM) |  |  |  |  |  |  |  | 
CC(C)C[C@H]([C@H](O)CCO)[C@@H](O)c1cc(O)cc(O)c1 | 28.3 | > 256 | > 256 |  |  |  |  |  |  |  | 
CC(C)C[C@@H]([C@H](O)CCCCCCCCCCO)[C@@H](O)c1cc(O)cc(O)c1 | 19.8 | > 256 | > 256 |  |  |  |  |  |  |  | 
CC(C)C[C@H]([C@H](O)CCNCc1cccc([N+](=O)[O-])c1)[C@@H](O)c1cc(O)cc(O)c1 | 50.8 | > 256 | > 256 |  |  |  | 4.03 |  |  |  | 
CCN(CC[C@@H](O)[C@@H](CC(C)C)[C@@H](O)c1cc(O)cc(O)c1)Cc1ccccc1 | 5.19 | 16 (≈ 39.8 µM) | 16 (≈ 39.8 µM) |  |  |  |  |  |  |  | 

SMILES | inhibition [1] [%] | MIC [2] [µg/mL] | MIC [3] [µg/mL] | Activity [4] | Activity [5] | MIC [6] [µg/mL] | pIC50 [7] | MIC [8] [µg/mL] | MIC [9] [µg/mL] | MIC [10] [µg/mL] | MIC [11] [µg/mL]
CC(C)C[C@@H]([C@H](O)CCNCc1ccccc1)[C@@H](O)c1cc(O)cc(O)c1 | 5.63 | > 256 | > 256 |  |  |  |  |  |  |  | 
CC(C)C[C@@H]([C@H](O)C[C@H](O)C#C[C@@H](C)C[C@H](C)C[C@@H](C)COCc1ccccc1)[C@@H](O)c1cc(O)cc(O)c1 | 76.8 | 64 (≈ 118 µM) | 64 (≈ 118 µM) |  |  |  | 4.93 |  |  |  | 
CCn1cc(C(=O)O)c(=O)c2cc(F)c(N3CCNCC3)cc21 [NORFLOXACIN] | 16.8 | 4 (≈ 12.5 µM) | > 256 |  |  | 2 (≈ 6.26 µM) |  | 2 (≈ 6.26 µM) | 2 (≈ 6.26 µM) | 4 (≈ 12.5 µM) | > 256
CC(C)C[C@H]([C@H](O)CCNc1ccc(O)cc1)[C@@H](O)c1cc(O)cc(O)c1 | 8.18 | > 256 | 64 (≈ 170 µM) |  |  |  |  |  |  |  | 
CC(C)C[C@H]([C@H](O)CCNc1c(Cl)cccc1Cl)[C@@H](O)c1cc(O)cc(O)c1 | 26.8 | 128 (≈ 299 µM) | 256 (≈ 598 µM) |  |  |  |  |  |  |  | 
CC(C)C[C@@H]([C@H](O)C[C@H](O)C#CCCCCCCOCc1ccccc1)[C@@H](O)c1cc(O)cc(O)c1 | 97.1 | 128 (≈ 257 µM) | 128 (≈ 257 µM) |  |  |  | 5.15 |  |  |  | 
CCC(O)[C@H](C)C[C@H](C)C[C@H](C)CC[C@@H](O)C[C@@H](O)[C@@H](CC(C)C)[C@@H](O)c1cc(O)cc(O)c1 (stereo not given in full) | 58.7 | 32 (≈ 66.3 µM) | 32 (≈ 66.3 µM) |  |  |  | 4.77 |  |  |  | 
CC(C)C[C@@H]([C@H](O)C[C@H](O)CC[C@@H](C)C[C@H](C)C[C@@H](C)CO)[C@@H](O)c1cc(O)cc(O)c1 | 31.1 | > 256 | > 256 |  |  |  |  |  |  |  | 
CC(C)C[C@H]([C@H](O)CC(O)C#C[C@@H](C)C[C@@H](C)C[C@@H](C)CO)[C@@H](O)c1cc(O)cc(O)c1 (stereo not given in full) | 74.7 | 64 (≈ 142 µM) | 64 (≈ 142 µM) |  |  |  | 5.17 |  |  |  | 
CCC(=O)[C@@H](C)C[C@@H](C)C[C@@H](C)CCCC[C@@H](O)[C@@H](CC(C)C)[C@@H](O)c1cc(O)cc(O)c1 | 81.5 | 4 (≈ 8.61 µM) | 8 (≈ 17.2 µM) |  |  |  | 4.78 |  |  |  | 
CC(C)C[C@H]([C@H](O)C[C@H](O)C#CCCCCCCOCc1ccccc1)[C@@H](O)c1cc(O)cc(O)c1 | 81.9 | 128 (≈ 257 µM) | 128 (≈ 257 µM) |  | Active | 64 (≈ 128 µM) | 4.99 | > 256 | > 256 | > 256 | 128 (≈ 257 µM)
CC(C)C[C@@H]([C@H](O)CCCC[C@@H](C)C[C@H](C)C[C@@H](C)CO)[C@@H](O)c1cc(O)cc(O)c1 | 79.4 | > 256 | > 256 |  |  |  | 4.98 |  |  |  | 
CC(C)C[C@H]([C@H](O)C[C@H](O)C#C[C@@H](C)C[C@@H](C)C[C@@H](C)COCc1ccccc1)[C@@H](O)c1cc(O)cc(O)c1 | 77.5 | 4 (≈ 7.4 µM) | 1 (≈ 1.85 µM) | Active | Active |  | 4.94 |  |  |  | 
CC(C)C[C@H]([C@H](O)CCNc1cccc([N+](=O)[O-])c1)[C@@H](O)c1cc(O)cc(O)c1 | 5.19 | 256 (≈ 633 µM) | 64 (≈ 158 µM) |  |  |  |  |  |  |  | 
CCC[C@@H](O)[C@@H](CC(C)C)[C@@H](O)c1cc(O)cc(O)c1 | 25.6 | > 256 | > 256 |  |  |  |  |  |  |  | 
CC(C)C[C@H]([C@H](O)CCNCc1ccco1)[C@@H](O)c1cc(O)cc(O)c1 | 34.5 | > 256 | > 256 |  |  |  |  |  |  |  | 
CC(C)C[C@@H]([C@@H](O)C[C@H](O)CC[C@@H](C)C[C@H](C)C[C@@H](C)CO)[C@@H](O)c1cc(O)cc(O)c1 | 59.1 | > 256 | > 256 |  |  |  | 4.54 |  |  |  | 
CC(C)C[C@H]([C@H](O)CCNc1ccccc1O)[C@@H](O)c1cc(O)cc(O)c1 | 4.87 | 64 (≈ 170 µM) | 64 (≈ 170 µM) |  |  |  |  |  |  |  | 
CCC(=O)[C@H](C)C[C@H](C)C[C@H](C)CC[C@@H](O)C[C@@H](O)[C@@H](CC(C)C)[C@@H](O)c1cc(O)cc(O)c1 | 61.2 | 256 (≈ 533 µM) | 256 (≈ 533 µM) |  | Active | 256 (≈ 533 µM) | 4.84 | 64 (≈ 133 µM) | > 256 | > 256 | 64 (≈ 133 µM)
